What is called IC50 is the concentration at which inhibition is half-maximal.

Drawing on patent US12459951B2, “Compounds that interact with RAS superfamily proteins for treatment of cancers, inflammatory diseases, rasopathies, and fibrotic disease” (SHY Therapeutics, LLC, priority 2022, dated 2025), this text covers IC50 for 4 compounds.

Assay in all cases: Proliferation Assay (Cell Viability Assay)
What all share (format): cell-based

The test system of one experiment is A375 (wild type Kras). Particulars: Homo sapiens, A-375; Proliferation assay, A375; read-out: A375 IC50 (nM) Melanoma. The method in brief: (§1)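 Cells plated at 2000–5000/well overnight, then treated 2–4 days at 37 °C, 5% CO2 with compound at 10 μM single dose or serial dilutions for IC50, in 0.3% DMSO and 10% FBS. Viability read by CellTiter 96 Aqueous One (MTS); % proliferation inhibition calculated from raw data.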

The test system of experiment [1] is BT-549 (expressing wild type KRAS). The note with it: Homo sapiens, BT-549; Proliferation assay, BT549; read-out: BT549 IC50 (nM) TNBC. The method in brief:
as §1

Experiment [2] concerns GP2d (expressing KRas G12D mutant). The note with it: Homo sapiens, Proliferation assay, read-out: GP2d IC50 (nM) Colorectal. The method, boiled down:
as §1

Experiment [3] concerns MM.1R (expressing wild type KRAS). The note with it: Homo sapiens, read-out: MM.1R IC50 (nM) Multiple Myloma. The method, boiled down:
as §1

Experiment [4] relates to NCI-H358 (expressing KRas G12C mutant). Particulars: Homo sapiens; Proliferation assay, NCI-H358; read-out: NCI-H358 IC50 (nM) NSCLC. The method in brief: as §1

Regarding `COc1cc(Nc2nc(-c3nccn3C)nn3cc(-c4ccn(C)n4)c(C)c23)ncc1C` [Compound 235, N-(4-Methoxy-5-methylpyridin-2-yl)-5-methyl-2-(1-methyl-1H-imidazol-2-yl)-6-(1-methyl-1H-pyrazol-3-yl)pyrrolo[2,1-f][1,2,4]triazin-4-amine], the IC50 in the experiment with A375 (wild type Kras) was above 50 nM; in experiment [1], 10 to 50 nM; in experiment [2], above 50 nM; in experiment [3] it was below 1 nM; in experiment [4] it was above 50 nM.

For the compound `Cc1c(-c2ccn(C)n2)cn2nc(-c3nccn3C)nc(Nc3cc(N4CCOCC4)ccn3)c12` [Compound 222, 5-Methyl-2-(1-methyl-1H-imidazol-2-yl)-6-(1-methyl-1H-pyrazol-3-yl)-N-(4-morpholinopyridin-2-yl)pyrrolo[2,1-f][1,2,4]triazin-4-amine], the half-inhibitory concentration (IC50) in the experiment on A375 (wild type Kras) is above 50 nM; in experiment [1], 10 to 50 nM; in experiment [2], above 50 nM; in experiment [3], below 1 nM; in experiment [4], 10 to 50 nM.

For `COc1cc(Nc2nc(-c3nccn3C)nn3cc(-c4ccn(C)n4)c(C)c23)ncc1C1CC1` [Compound 238, N-(5-Cyclopropyl-4-methoxypyridin-2-yl)-5-methyl-2-(1-methyl-1H-imidazol-2-yl)-6-(1-methyl-1H-pyrazol-3-yl)pyrrolo[2,1-f][1,2,4]triazin-4-amine], the IC50 is above 50 nM in the experiment on A375 (wild type Kras); 10 to 50 nM in experiment [1]; above 50 nM in experiment [2]; below 1 nM in experiment [3]; above 50 nM in experiment [4].

On to `Cc1c(-c2ccn(C)n2)cn2nc(-c3nccn3C)nc(Nc3cc4c(cn3)CCO4)c12` [Compound 221, N-(5-Methyl-2-(1-methyl-1H-imidazol-2-yl)-6-(1-methyl-1H-pyrazol-3-yl)pyrrolo[2,1-f][1,2,4]triazin-4-yl)-2,3-dihydrofuro[3,2-c]pyridin-6-amine], for which the 50% inhibitory concentration (IC50) with A375 (wild type Kras) was above 50 nM; in experiment [1], above 50 nM; in experiment [2], above 50 nM; in experiment [3], below 1 nM; in experiment [4], 10 to 50 nM.
